# Biological target: T1, rat A1 receptors (Rattus norvegicus, UniProt P25099)
# T1 construct: to A1 receptors from rat cerebral cortical membranes; from tissue; host or cells: rat cerebral cortical membranes
# T1 sequence (P25099 1-326): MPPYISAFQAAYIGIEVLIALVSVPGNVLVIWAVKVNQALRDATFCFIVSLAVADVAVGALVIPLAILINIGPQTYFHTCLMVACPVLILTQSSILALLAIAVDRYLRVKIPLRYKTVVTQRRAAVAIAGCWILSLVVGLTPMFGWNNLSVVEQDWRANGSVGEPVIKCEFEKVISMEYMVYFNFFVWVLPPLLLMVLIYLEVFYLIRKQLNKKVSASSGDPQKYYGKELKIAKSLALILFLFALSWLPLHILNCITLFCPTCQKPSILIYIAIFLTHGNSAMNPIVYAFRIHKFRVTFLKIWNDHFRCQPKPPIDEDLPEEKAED
# Test: Displacement of [3H]R-PIA binding to A1 receptors in rat brain membranes
# Conditions: read-out: Ki rA1
# Method: All nonradioactive compounds were initially dissolved in DMSO and diluted with buffer to the final concentration, where the amount of DMSO never exceeded 2%. Incubations were terminated by rapid filtration over Whatman GF/B filters using a Brandell cell harvester. The tubes were rinsed three times with 3 mL buffer each.
# At least six different concentrations of competitor, spanning 3 orders of magnitude adjusted appropriately for the IC50 value of each compound, were used. IC50 values, calculated with the nonlinear regression method implemented in Graph-Pad Prism (San Diego, CA) were converted to apparent Ki values as described by [Linden [1982]]. Hill coefficients of the tested compounds were in the range of 0.8–1.1.
# At A2B receptors, two radioligand binding assays (Table 1) were used. Ki values of xanthine derivatives were determined in displacement of binding of the non-selective radioligands […], 8 (4-(2-[7-amino-2-{furyl}{1,2,4}triazolo{2,3-a}{1,3,5}tr nzyl)-8-phenyloxyacetate-1-propyl-xanthine), at human A2B receptors expressed in HEK-293 cell membranes [[Linden and Jacobson, 1998]]. In order to evaluate selectivity, selected derivatives were subjected to standard binding assays at A1, A2A, and A3 receptors. The initial screening utilized rat brain A1/A2A receptors (with radioligands [^3H]R-PIA and [^3H]CGS-21680), and selected compounds were examined at the recombinant human subtypes (Table 1), using [^3H]CPX ([^3H]8-cyclopentyl-1,3-dipropylxanthine) and ^125I-ZM 241385, ^125I-4-(2-[7-amino-2-[2-furyl][1,2,4]triazolo[2,3-a][1,3,5]triazin-5-yl-amino]ethyl)phenol) [[Palmer et al., 1996]].
row,Ki,Structure (SMILES)
1,6.51 ± 1.24 nM,"CCCn1c(=O)c2[nH]c(-c3ccc(OCC(=O)NNC(C)=O)cc3)nc2n(CCC)c1=O [Compound 4e, 8-[4-[(Carboxymethyl)oxy]phenyl]-1,3-di-(n-propyl)xanthine N-Acetylhydrazide]"
2,73.3 ± 22 nM,"CCCn1c(=O)c2[nH]c(-c3ccc(OCC(=O)NNC(=O)CCC(=O)O)cc3)nc2n(CCC)c1=O [Compound 9, 8-[4-[(Carboxymethyl)oxy]phenyl]-1,3-di-(n-propyl)xanthine N-[(3-Carboxy)-n-propionyl]hydrazide]"
3,11.1 ± 2.4 nM,"CCCn1c(=O)c2[nH]c(-c3ccc(OCC(=O)NN4C(=O)C(C)=C(C)C4=O)cc3)nc2n(CCC)c1=O [Compound 14, 8-[4-[(Carboxymethyl)oxy]phenyl]-1,3-di-(n-propyl)xanthine N,N-[(1,2-Dimethyl)maleyl]hydrazide]"
4,3590 nM,"CCCn1c(=O)[nH]c(=O)c2[nH]c(-c3ccc(OCC(=O)NN4C(=O)C(C)=C(C)C4=O)cc3)nc21 [Compound 15, 8-[4-[(Carboxymethyl)oxy]phenyl]-1H-3-(n-propyl)xanthine N,N-[(1,2-Dimethyl)maleyl]hydrazide]"
5,26.3 ± 2.3 nM,"CCCn1c(=O)c2[nH]c(-c3ccc(OCC(=O)NN4C(=O)c5ccccc5C4=O)cc3)nc2n(CCC)c1=O [Compound 21, 8-[4-[(Carboxymethyl)oxy]phenyl]-1,3-di-(n-propyl)xanthine N,N-Phthaloylhydrazide]"

# Source: publication PMC9196953 (Drug development research, 1999)
